{"source": "patent US20200147039A1", "about": "“COMPOUNDS USEFUL IN INHIBITING HUMAN TREFOIL FACTOR 3” (NATIONAL UNIVERSITY OF SINGAPORE, priority 2017, published 2020)", "key": {"[1]": {"system": "TFF3-high expressing mammary carcinoma cell (MCF7, BT474, MDA-MB-361)", "assay": "Cell viability in 3D Matrigel culture, AlamarBlue (FIG. 4)", "type": "cell-based, human", "conditions": "cultured 14 days in 3D Matrigel, vs vehicle (DMSO)", "method": "Cell viability in colonies generated by MCF7, BT474 and MDA-MB-361 cell after exposure with compound 43 or vehicle (DMSO) cultured 14 days in 3D Matrigel using AlamarBlue™ viability assay as previously described in Pandey V et al., Breast Cancer Res. 2014; 16(5):429. Microscopic visualization (right side) of colonies generated by BT474 and MCF7 cells after exposure with compound 43 or vehicle (DMSO) cultured 14 days in 3D Matrigel. On days 5, 8 and 11, colonies were treated with compound 43 or DMSO. Statistical significance was assessed by using an unpaired two-tailed Student's t test (P<0.05 was considered as significant) using GraphPad Prism5."}, "BT20": {"system": "BT20", "assay": "AlamarBlue cell viability assay, BT20", "type": "cell-based", "conditions": "Homo sapiens, BT-20, Mammary", "description": "(A) Inhibitory concentration 50% (IC50) values for compound 43 in the MC cell lines are tabulated, using an AlamarBlue™ cell viability assay as previously described in Pandey V et al., Breast Cancer Res. 2014; 16(5):429. (B) Measured dose-dependent manner effect of compound 43 on the viability of MC cells (left-side, TFF3-high and right, TFF3-low) using AlamarBlue™ viability assay as previously described (ibid). (C) Apoptotic cell death of mammary carcinoma cell lines measured after treatment with 10 μM compound 43 using flow cytometry analysis at 24 hour as described previously in Keerthy H K et al., PloS one. 2014; 9(9):e107118. Annexin V-FITC staining is indicated on the X-axis and PI staining on the Y-axis. […] Acquisition of Annexin V and PI data were represented as percentage (%) in each quadrant. Note: CM, conditioned media; MCF10A and MCF12A, non-transformed immortalized-mammary epithelial cell line. Points are mean of triplicate experiments; bars, ±SD. Statistical significance was assessed by using an unpaired two-tailed Student's t test (P<0.05 was considered as significant) using GraphPad Prism5. […]\n(§1) In table 9 IC50 values of compound 43 compound library in several cancer cell lines are tabulated, using an AlamarBlue® cell viability assay as previously described in Pandey V et al., Breast Cancer Res. 2014; 16(5):429. Statistical analysis was assessed by using GraphPad Prism5. […]"}, "[2]": {"system": "MCF7 cells with forced expression of TFF3", "assay": "MCF7 cells with forced expression of TFF3: western blot, cell viability, caspase 3/7 (FIG. 5)", "type": "cell-based, human", "conditions": "MCF7 cells with forced expression of TFF3, 5 μM", "method": "(A) Western blot analysis was used to assess the levels of pSTAT3, STAT3, BCL2, and CCND1 protein in MCF7 cells with forced expression of TFF3 after treatment with compound 43 (5 μM) and Stattic (2 μM) was used to treat cells. Depletion of STAT3 expression was achieved using transient-transfection of small interfering (si)-RNA (Invitrogen, Singapore) directed to STAT3 transcript as previously described in Pandey V et al., Breast Cancer Res. 2014; 16(5):429. Anti-TFF3 polyclonal antibody was used as previously described (ibid). Soluble whole cell extracts were run on a SDS-PAGE and immunoblotted as previously described (ibid). β-ACTIN was used as input control for cell lysate. The sizes of detected protein bands in kDa are shown on the right side (B) Cell viability and (C) caspase 3/7 activities in MCF7 cells with forced expression of TFF3 after treatment with compound 43 (5 μM) and Stattic (2 μM) was used to treat cells. […] Evaluated using ApoTox-Glo™ Triplex Assay Kit, Promega (Singapore) according to manufacturer's instructions. Cell viability fluorescence is measured at 400Ex/505Em, while apoptosis (caspase 3/7 activities) is determined with the luminescence measurement. […] Statistical significance was assessed by using an unpaired two-tailed Student's t test (P<0.05 was considered as significant) using GraphPad Prism5. […]"}, "T238": {"system": "T238", "assay": "AlamarBlue cell viability assay, T238", "type": "cell-based", "conditions": "Homo sapiens, Thyroid", "method": "(§2) The human immortalized mammary epithelial cell lines, MCF10A, and MCF12A; and immortalized hepatocellular epithelial cell line, LO2 were obtained from the American Type Culture Collection (ATCC, Rockville, Md.) and were cultured as per ATCC propagation instructions. MC cell lines, MCF7, T47D, BT474, BT20, MDA-MB-361, MDA-MB-436, MDA-MB-468, and MDA-MB-231; endometrial carcinoma cell lines, Ishikawa, ECC1, RL95-2 and AN3; hepatocellular carcinoma cell lines, Hep3B, H2P, and H2M; colon carcinoma cell lines, DLD-1, and Caco-2; and prostate carcinoma cell lines, PC3, LNCaP, and DU145 were obtained from the American Type Culture Collection (ATCC, Rockville, Md.). Pancreatic carcinoma cell lines, AsPC-1 and BxPC-3; Lung carcinoma cell lines, HCC-827, NCI-H1975, HCC-4006, PC-14, and NCI-H1299; and Thyroid carcinoma cell lines HTH83, CAL62, T238, and OGK-M were obtained from Prof. H. Phillip Koeffler's laboratory at The Cancer Science Institute of Singapore, National University of Singapore (NUS). Gastric carcinoma cell lines, AGS, MKN-28, MKN-45, and A2-528 were obtained from Prof. […]\nas §1"}, "H2P": {"system": "H2P", "assay": "AlamarBlue cell viability assay, H2P", "type": "cell-based", "conditions": "Homo sapiens, Hepatocellular", "method": "as §2, §1"}}}
{"smiles": "Cc1cc(-c2ccc(C3C(C#N)=C(N)Oc4c3c(=O)oc3ccccc43)cc2)cnc1F", "note": "(centres unmarked) [Compound 43, 2-Amino-4-(4-(6-fluoro-5-methylpyridin-3-yl)phenyl)-5-oxo-4H,5H-pyrano[3,2-c]chromene-3-carbonitrile]", "values": [{"measurement": "cell viability in Matrigel 3D culture", "setting": "[1]", "result": "suppresses cell viability"}, {"measurement": "IC50", "setting": "BT20", "result": 468, "unit": "µM"}, {"measurement": "TFF3-stimulated effects", "setting": "[2]", "result": "reverted"}, {"measurement": "IC50", "setting": "T238", "result": 185, "unit": "µM"}, {"measurement": "IC50", "setting": "H2P", "result": 11.3, "unit": "µM"}]}
